This is an account of results in ChEMBL document CHEMBL1158636, “Discovery of a novel sulfonamide-pyrazolopiperidine series as potent and efficacious gamma-secretase inhibitors (Part II)” (Bioorg Med Chem Lett, 2010).

Data set [1] can be described thus: Inhibition of gamma-secretase-mediated notch cleavage after 2 hrs by ELISA.
Data set [2] is described as follows: (§1) Oxidative metabolic stability in human liver microsomes assessed as compound remaining at 2 uM after 30 mins in presence of 1 mM UDPGA. To be noted: liver microsomes, read-out: Stability. The class given is ADME, Microsome.
A further data set concerns the target Gamma-secretase. The experiment in a line: Inhibition of gamma-secretase-mediated notch cleavage in human SNC cells by ELISA. The format is cell-based.
Data set [3] can be described thus: Inhibition of gamma-secretase-mediated APP cleavage assessed as amyloid beta40 level after 2 hrs by ELISA.
The test system of data set [4] is Liver microsomes. The experiment in a line: (§2) Oxidative metabolic stability in human liver microsomes assessed as compound remaining at 1 uM after 30 mins in presence of 1 mM NADPH. To be noted: microsomes, 0.5 h, 1 µM. The class given is ADME, Microsome.
Data set [5] deals with Liver microsomes. The data set is described as §1. The format is ADME, Microsome. To be noted: microsomes, 0.5 h, 2 µM.
A further data set deals with Mus musculus. The experiment in a line: Neuroprotective activity in wild type FVB mouse brain assessed as reduction of amyloid beta 40 level at 1 mg/kg, po after 3 hrs. The class given is functional. On the set-up: scale not given: the % may be the effect or the level left.
Data set [6] has as its target Gamma-secretase (Homo sapiens) (UniProt Q96BI3+Q9NZ42+Q8WW43+P49768+Q92542+P49810). The experiment in a line: Inhibition of gamma-secretase-mediated APP cleavage in human SNC cells by ELISA. The format is cell-based.
Data set [7] can be described thus: as §2. The format is ADME, Microsome. To be noted: liver microsomes, read-out: Stability.

Consider `O=S(=O)(c1ccc(C(F)(F)F)nc1)N1C(C2CC2)c2cn[nH]c2C(F)(F)C12CC2` (racemic) [4'-CYCLOPROPYL-7',7'-DIFLUORO-5'-(6-(TRIFLUOROMETHYL)PYRIDIN-3-YLSULFONYL)-1',4',5',7'-TETRAHYDRO SPIRO[CYCLOPROPANE-1,6'-PYRAZOLO[4,3-C]PYRIDINE] (ENANTIOMERIC MIX)], for which the IC50 in data set [1] turned out to be 0.002 µM; against Gamma-secretase, 0.05 µM; in data set [3], 0.0002 µM. Besides, in [2], the remaining at 0.5 h, 2 µM came to 89%. Further, the Stability in the data set on Liver microsomes [4] is 61%.
In the case of `O=S(=O)(c1ccc(C(F)(F)F)nc1)N1C(C2CC2)c2cn[nH]c2C(F)(F)C12CC2` (stereo in doubt; 17c) [4'-CYCLOPROPYL-7',7'-DIFLUORO-5'-(6-(TRIFLUOROMETHYL)PYRIDIN-3-YLSULFONYL)-1',4',5',7'-TETRAHYDRO SPIRO[CYCLOPROPANE-1,6'-PYRAZOLO[4,3-C]PYRIDINE] (ENANTIOMERIC MIX)], the IC50 in [1] amounted to 0.221 µM; on Gamma-secretase it was 9.28 µM; in data set [3], 0.056 µM. Also, the results for the Stability in the data set on Liver microsomes [5] and in the data set with Liver microsomes [4] were 100% and 72%, respectively.
As for `O=C1c2[nH]ncc2C(C2CC2)N(S(=O)(=O)c2ccc(C(F)(F)F)nc2)C12CC2` (stereo in doubt; 16e) [4'-CYCLO PROPYL-5'-(6-(TRIFLUORO METHYL)PYRIDIN-3-YL SULFONYL)-4',5'-DIHYDROSPIRO[CYCLOPROPANE-1,6'-PYRAZOLO[4,3-C]PYRIDIN]-7'(1'H)-ONE (ENANTIOMERIC MIX)], the Stability is 88% in the data set on Liver microsomes [5] and 83% in the data set with Liver microsomes [4]. Further, the values for the IC50 (against Gamma-secretase; in data set [3]) were > 40 µM and 1.07 µM, respectively.
For the compound `CC(C)(C)C1C(=O)c2[nH]ncc2C(C2CC2)N1S(=O)(=O)c1ccc(C(F)(F)F)nc1` (stereo in doubt; 3u) [6-TERT-BUTYL-4-CYCLOPROPYL-5-(6-(TRIFLUOROMETHYL)PYRIDIN-3-YLSULFONYL)-5,6-DIHYDRO-1H-PYRAZOLO[4,3-C]PYRIDIN-7(4H)-ONE (STRUCTURAL MIX)], the IC50 in [1] was found to be 0.107 µM; against Gamma-secretase, 1.64 µM; in data set [3], 0.0048 µM. In the data set on Liver microsomes [4], the Stability was determined as 12%.
Take `O=C1c2[nH]ncc2C(C2CC2)N(S(=O)(=O)c2ccc(C(F)(F)F)cn2)C12CC2` (stereo in doubt; 16i) [4'-CYCLOPROPYL-5'-(5-(TRIFLUORO METHYL)PYRIDIN-2-YL SULFONYL)-4',5'-DIHYDROSPIRO[CYCLOPROPANE-1,6'-PYRAZOLO[4,3-C]PYRIDIN]-7'(1'H)-ONE (ENANTIOMERIC MIX)]: the IC50 in data set [1] worked out at 0.223 µM; against Gamma-secretase, 2.29 µM; in [3], 0.0096 µM. The Stability is on record as 96% in the data set on Liver microsomes [5] and 82% in the data set on Liver microsomes [4].
In the case of `O=S(=O)(c1ccc(C(F)(F)F)nc1)N1[C@@H](C2CC2)c2cn[nH]c2C(F)(F)[C@H]1C1CC1` (stereo in doubt), in the data set with Mus musculus, the Activity worked out at 20%. In data set [6], the ED50 was found to be 0.002 µM. For the same compound, the IC50 in [1] was 0.023 µM; against Gamma-secretase, 0.138 µM; in data set [3] it was 0.0006 µM. Also, in data set [2], the remaining at 0.5 h, 2 µM worked out at 75%. Further, the remaining at 0.5 h, 1 µM in data set [7] worked out at 80%.
In data set [6], `CC(C)[C@H]1C(=O)c2[nH]ncc2[C@@H](C(C)C)N1S(=O)(=O)c1ccc(C(F)(F)F)cc1` (relative stereo) registered an ED50 of 0.033 µM. In addition, the 50% inhibitory concentration (IC50) amounted to 0.014 µM in data set [1], 2.3 µM against Gamma-secretase and 0.0005 µM in [3]. The remaining at 0.5 h, 2 µM in data set [2] was determined as 82%. In addition, in data set [7], the remaining at 0.5 h, 1 µM was 0%.
As for `O=C1c2[nH]ncc2C(C2CC2)N(S(=O)(=O)c2ccc(C(F)(F)F)nc2)C12CC2` (stereo in doubt; 16f) [4'-CYCLO PROPYL-5'-(6-(TRIFLUORO METHYL)PYRIDIN-3-YL SULFONYL)-4',5'-DIHYDROSPIRO[CYCLOPROPANE-1,6'-PYRAZOLO[4,3-C]PYRIDIN]-7'(1'H)-ONE (ENANTIOMERIC MIX)], the Activity in the data set with Mus musculus came out at 27%. For the same compound, the IC50 was 0.015 µM in [1], 0.25 µM against Gamma-secretase and 0.0014 µM in [3]. In addition, in the data set on Liver microsomes [5], the Stability is listed as 94%.
Take `CC[C@@H]1c2cn[nH]c2C(F)(F)[C@H](CC)N1S(=O)(=O)c1ccc(C(F)(F)F)nc1` (relative stereo): the ED50 in [6] amounted to 0.006 µM. The values for the half-inhibitory concentration (IC50) (in [1]; against Gamma-secretase; in data set [3]) were 0.05 µM, 0.304 µM and 0.0018 µM, respectively. Also, in [2], the remaining at 0.5 h, 2 µM is 66%. In [7], the remaining at 0.5 h, 1 µM amounted to 22%.
Turning to `O=S(=O)(c1ccc(C(F)(F)F)nc1)N1C(C2CC2)c2cn[nH]c2C(F)(F)C12CC2` (stereo in doubt; 17b) [4'-CYCLOPROPYL-7',7'-DIFLUORO-5'-(6-(TRIFLUOROMETHYL)PYRIDIN-3-YLSULFONYL)-1',4',5',7'-TETRAHYDRO SPIRO[CYCLOPROPANE-1,6'-PYRAZOLO[4,3-C]PYRIDINE] (ENANTIOMERIC MIX)], the IC50 in [1] came out at 0.001 µM; against Gamma-secretase it was 0.025 µM. In addition, the Stability with Liver microsomes [5] and with Liver microsomes [4] was 85% in each case.
In data set [6], `O=S(=O)(c1ccc(C(F)(F)F)cc1)N1C(C2CC2)c2cn[nH]c2C(F)(F)C1C1CC1` (stereo unspecified) registered an ED50 of 0.006 µM. Further, the figures for the IC50 (in data set [1]; against Gamma-secretase; in data set [3]) were 0.042 µM, 0.771 µM and 0.0015 µM, respectively. Moreover, the remaining at 0.5 h, 2 µM in [2] amounted to 64%. Further, the remaining at 0.5 h, 1 µM in data set [7] was determined as 76%.
Turning to `O=C1c2[nH]ncc2C(C2CC2)N(S(=O)(=O)c2ccc(C(F)(F)F)cn2)C12CC2` (stereo in doubt; 16h) [4'-CYCLOPROPYL-5'-(5-(TRIFLUORO METHYL)PYRIDIN-2-YL SULFONYL)-4',5'-DIHYDROSPIRO[CYCLOPROPANE-1,6'-PYRAZOLO[4,3-C]PYRIDIN]-7'(1'H)-ONE (ENANTIOMERIC MIX)], the results for the IC50 (in data set [1]; against Gamma-secretase; in data set [3]) were 8.28 µM, > 40 µM and 0.897 µM, respectively. In addition, in the data set on Liver microsomes [4], the Stability was found to be 80%.
